# Experimental data from patent US12622910B2, “Inhibitors of Bruton's tyrosine kinase and methods of their use” (Janssen Pharmaceutica NV, priority 2021, dated 2026).
# Assay: Phase 1 first-in-human study, safety (TEAEs)
# Assay type: in vivo
# Description: Study Participants—Volunteers aged 18-58 years, with a body mass index (BMI) of 18-30 kg/m^2, body weight ≥50 kg, and who were considered healthy based on medical history, physical examination, clinical laboratory evaluation, and 12-lead electrocardiogram (ECG) were enrolled in this study. Females were required to be surgically sterile or postmenopausal. Key exclusion criteria were history of, or current, clinically significant medical illness and history of malignancy within 5 years.
# Study Design—This phase 1, randomized, double-blind, placebo-controlled, single-center study (NCT03607513; EudraCT 2018-000428-32) was conducted between July 2018 and August 2019 at the Janssen Clinical Pharmacology Unit in Merksem, Belgium.The study comprised two distinct parts; Part 1 examined SAD of compound of Formula (III) and Part 2 assessed MAD of compound of Formula (III).
# Safety, tolerability, PK, and BTKO were assessed for six doses of compound of Formula (III) oral solution (4, 12, 36, 100, 200, 400 mg) in participants under fasted conditions. The SAD part comprised 10 cohorts of 8 participants each (FIG. 1). In each cohort receiving compound of Formula (III) oral solution (Cohorts 1-9), 6 participants were randomized to receive compound of Formula (III) and 2 to receive placebo. All participants in Cohort 10 received compound of Formula (III) as an oral capsule. All 10 cohorts included 2 sentinel participants who were dosed ˜24 hours prior to the rest of the cohort. In cohorts receiving compound of Formula (III) oral solution, 1 sentinel participant received compound of Formula (III) and the other received placebo.
# Six male escalating dose cohorts received a single oral dose of 4, 12, 36, 100, 200, 400 mg compound of Formula (III) or placebo solution under fasted conditions. Gender effects were assessed in 2 female cohorts whose participants received either a 36 or 100 mg dose of compound of Formula (III) or placebo as an oral solution under fasted conditions. Food effects were evaluated in a male cohort receiving compound of Formula (III) 100 mg or placebo as an oral solution after a high-fat breakfast.
# Safety, tolerability, and PK of a solid dose formulation of compound of Formula (III) were assessed in an additional male cohort (Cohort 10) that received 3×35 mg (105 mg) of compound of Formula (III) in the fasted state. Since all the participants received the same dose of compound of Formula (III), this cohort was not blinded.
# Safety, tolerability, PK, and BTKO following multiple compound of Formula (III) doses were evaluated in 3 dose escalation cohorts with a total of 18 participants (males: 9, females: 9) receiving active study drug. In each cohort, 3 males and 3 females were randomized to receive 36 mg once-daily (QD), 100 mg QD, or 200 mg QD compound of Formula (III) oral solution and 3 participants (males: 2; female: 1) to receive placebo. Two male participants in each cohort served as sentinel participants: one received compound of Formula (III) and other received placebo ˜48 hours prior to other participants in the cohort. All safety and tolerability data (through the follow-up visit), PK data (through at least 24 hours after last dose administration), and all available PD data were reviewed from each cohort before a decision was made to dose escalate.
# Safety—Safety evaluations were based upon the type, incidence, and severity of treatment-emergent adverse events (TEAEs) reported throughout the study, and concomitant medication reporting, clinical laboratory tests, physical examinations, vital sign measurements, and ECGs assessed at pre-defined time points. The TEAEs and serious TEAEs were coded using the Medical Dictionary for Regulatory Activities (MedDRA Version 21.0) and summarized by system-organ class (SOC) and preferred terms.
compound,measurement,setting,value
"C=CC(=O)N[C@H]1CCC[C@H]1NC(=O)c1sc2nccc3c2c1NC(=O)N3c1cnc(CC(C)C)cc1C (atropisomer, axis not shown) [compound of Formula (III), N-((1R,2S)-2-Acrylamidocyclopentyl)-5-(S)-(6-isobutyl-4-methylpyridin-3-yl)-4-oxo-4,5-dihydro-3H-1-thia-3,5,8-triazaacenaphthylene-2-carboxamide]","Administration site irritation, n (%)","Part 1, 4 mg fasted",1
same,"Headache, n (%)","Part 1, 4 mg fasted",1
same,"Patients with ≥1 TEAEs, n (%)","Part 1, 4 mg fasted",2
same,"Administration site irritation, n (%)","Part 1, 12 mg fasted",0
same,"Headache, n (%)","Part 1, 12 mg fasted",2
same,"Patients with ≥1 TEAEs, n (%)","Part 1, 12 mg fasted",3
same,"Administration site irritation, n (%)","Part 1, 36 mg fasted",0
same,"Headache, n (%)","Part 1, 36 mg fasted",2
same,"Patients with ≥1 TEAEs, n (%)","Part 1, 36 mg fasted",4
same,"Administration site irritation, n (%)","Part 1, 100 mg fasted",0
same,"Headache, n (%)","Part 1, 100 mg fasted",0
same,"Patients with ≥1 TEAEs, n (%)","Part 1, 100 mg fasted",4
same,"Administration site irritation, n (%)","Part 1, 100 mg fed",0
same,"Headache, n (%)","Part 1, 100 mg fed",1
same,"Patients with ≥1 TEAEs, n (%)","Part 1, 100 mg fed",1
same,"Administration site irritation, n (%)","Part 1, 105 mg solid",0
same,"Headache, n (%)","Part 1, 105 mg solid",1
same,"Patients with ≥1 TEAEs, n (%)","Part 1, 105 mg solid",3
same,"Administration site irritation, n (%)","Part 1, 200 mg fasted",1
same,"Headache, n (%)","Part 1, 200 mg fasted",1
same,"Patients with ≥1 TEAEs, n (%)","Part 1, 200 mg fasted",4
same,"Administration site irritation, n (%)","Part 1, 400 mg fasted",0
same,"Headache, n (%)","Part 1, 400 mg fasted",0
same,"Patients with ≥1 TEAEs, n (%)","Part 1, 400 mg fasted",3
same,"headache, incidence","Part 1, all treated",13.3%
same,"nasal congestion, incidence","Part 1, all treated",5%
same,"Administration site irritation, n (%)","Part 1, total N = 60",2(3.3)
same,"Headache, n (%)","Part 1, total N = 60",8 (13.3)
same,"Abdominal discomfort, n (%)","Part 2, 36 mg",1 (16.7)
same,"Abdominal pain, n (%)","Part 2, 36 mg",0
same,"Abnormal dreams, n (%)","Part 2, 36 mg",0
same,"Administration site irritation, n (%)","Part 2, 36 mg",1 (16.7)
same,"Back pain, n (%)","Part 2, 36 mg",1 (16.7)
same,"Cough, n (%)","Part 2, 36 mg",0
same,"Dehydration, n (%)","Part 2, 36 mg",0
same,"Diarrhea, n (%)","Part 2, 36 mg",0
same,"Dizziness, n (%)","Part 2, 36 mg",0
same,"Dysgeusia, n (%)","Part 2, 36 mg",0
same,"Fatigue, n (%)","Part 2, 36 mg",0
same,"Flatulence, n (%)","Part 2, 36 mg",1 (16.7)
same,"Headache, n (%)","Part 2, 36 mg",0
same,"Hot flush, n (%)","Part 2, 36 mg",0
same,"Increased bronchial secretion, n (%)","Part 2, 36 mg",0
same,"Injection site hematoma, n (%)","Part 2, 36 mg",0
same,"Injection site reaction, n (%)","Part 2, 36 mg",1 (16.7)
same,"Lipase increased, n (%)","Part 2, 36 mg",0
same,"Myalgia, n (%)","Part 2, 36 mg",0
same,"Nasopharyngitis, n (%)","Part 2, 36 mg",0
same,"Nausea, n (%)","Part 2, 36 mg",0
same,"Oral dysaesthesia, n (%)","Part 2, 36 mg",0
same,"Oropharyngeal pain, n (%)","Part 2, 36 mg",0
same,"Paresthesia, n (%)","Part 2, 36 mg",2 (33.3)
same,"Patients with ≥1 TEAEs, n (%)","Part 2, 36 mg",4 (66.7)
same,"Regurgitation, n (%)","Part 2, 36 mg",1 (16.7)
same,"Skin irritation, n (%)","Part 2, 36 mg",0
same,"Skin reaction, n (%)","Part 2, 36 mg",1 (16.7)
same,"Somnolence, n (%)","Part 2, 36 mg",0
same,"Vertigo, n (%)","Part 2, 36 mg",0
same,"Vessel puncture site hematoma, n (%)","Part 2, 36 mg",0
same,"Vision blurred, n (%)","Part 2, 36 mg",0
same,"Abdominal discomfort, n (%)","Part 2, 100 mg",1 (16.7)
same,"Abdominal pain, n (%)","Part 2, 100 mg",0
same,"Abnormal dreams, n (%)","Part 2, 100 mg",0
same,"Administration site irritation, n (%)","Part 2, 100 mg",2 (33.3)
same,"Back pain, n (%)","Part 2, 100 mg",0
same,"Cough, n (%)","Part 2, 100 mg",0
same,"Dehydration, n (%)","Part 2, 100 mg",0
same,"Diarrhea, n (%)","Part 2, 100 mg",1 (16.7)
same,"Dizziness, n (%)","Part 2, 100 mg",0
same,"Dysgeusia, n (%)","Part 2, 100 mg",0
same,"Fatigue, n (%)","Part 2, 100 mg",0
same,"Flatulence, n (%)","Part 2, 100 mg",0
same,"Headache, n (%)","Part 2, 100 mg",0
same,"Hot flush, n (%)","Part 2, 100 mg",1 (16.7)
same,"Increased bronchial secretion, n (%)","Part 2, 100 mg",0
same,"Injection site hematoma, n (%)","Part 2, 100 mg",2 (33.3)
same,"Injection site reaction, n (%)","Part 2, 100 mg",1 (16.7)
same,"Lipase increased, n (%)","Part 2, 100 mg",0
same,"Myalgia, n (%)","Part 2, 100 mg",1 (16.7)
